Patent publication US8551510B2, “Bed bug control and repellency” (Bedoukian Research, Inc., priority 2009, dated 2013)
Where two headings read alike, the source gives them in different places.

Test system: bed bugs
Assay: Choice test with unconcealed bed bugs on filter paper discs, test compound in acetone vs. acetone only (percent repellency)
Assay type: in vivo
Conditions: for percent repellency at 2 hour: 2 hour post-treatment (Table 2)
Description: This test was undertaken employing unconcealed bugs. Two semicircular discs of filter paper, 9 cm in radius treated with 1 ml of solution to wet the entire surface, one treated with an acetone solution of the test compound and one only acetone treated were placed on the lid of a Petri dish. Five replicates of ten (10) bed bugs were release into the center of the lids of the Petri dish with a choice of the test compound treated or only acetone treated substrate. The distribution of bed bugs was recorded at ½, […], 2, 6 and 24 hours post-treatment. Paired t-tests were conducted for each treatment to ascertain whether or not there was a statistically significant difference in the number of bed bugs on the treated vs. untreated discs.

[1] = chemical at 0.5% in acetone on filter paper, 0.5 hr post-treatment, read-out: percent repellency at 0.5 hr
[2] = chemical at 0.5% in acetone on filter paper, 1 hr post-treatment, read-out: percent repellency at 1 hr
[3] = chemical at 0.5% in acetone on filter paper, 6 hr post-treatment, read-out: percent repellency at 6 hr
[4] = chemical at 0.5% in acetone on filter paper, 24 hr post-treatment, read-out: percent repellency at 24 hr
[5] = chemical at 0.5%, average of 0.5, 1, 6 and 24 hr, read-out: percent repellency, Average
[6] = chemical at 0.2% in acetone on filter paper, 0.5 hr post-treatment, read-out: percent repellency at 0.5 hr
[7] = chemical at 0.2% in acetone on filter paper, 1 hr post-treatment, read-out: percent repellency at 1 hr
[8] = chemical at 0.2% in acetone on filter paper, 6 hr post-treatment, read-out: percent repellency at 6 hr
[9] = chemical at 0.2% in acetone on filter paper, 24 hr post-treatment, read-out: percent repellency at 24 hr
[10] = chemical at 0.2%, average of 0.5, 1, 6 and 24 hr, read-out: percent repellency, Average
[11] = 0.5 h, read-out: percent repellency at 0.5 hr
[12] = 1 h, read-out: percent repellency at 1 hr
[13] = 6 h, read-out: percent repellency at 6 hr
[14] = 24 h, read-out: percent repellency at 24 hr
[15] = read-out: percent repellency, Average

| SMILES | pest or weed control at 0.5 % [1] [%] | pest or weed control at 0.5 % [2] [%] | pest or weed control at 0.5 % [3] [%] | pest or weed control at 0.5 % [4] [%] | pest or weed control at 0.5 % [5] [%] | also measured |
| --- | --- | --- | --- | --- | --- | --- |
| CCCCCCCCC(=O)C(C)=O [2,3-Undecanedione, reference compound] | 90 | 60 | 60 | 90 | 75 |  |
| CC/C=C\CC1C(=O)CCC1CC(=O)OC (stereo not drawn) [Methyl jasmonate, (Z)-methyl 2-(3-oxo-2-(pent-2-enyl)cyclopentyl)acetate] |  |  |  |  |  | pest or weed control at 0.2 % [6]: 80%; pest or weed control at 0.2 % [7]: 90%; pest or weed control at 0.2 % [8]: 90%; pest or weed control at 0.2 % [9]: 88%; pest or weed control at 0.2 % [10]: 87% |
| CC1(C)C2CCC3(C2)C1C(=O)CCC3(C)C (stereo not drawn) [Isolongifolanone, 2,2,7,7-tetramethyltricyclo[6.2.1.01,6]undecan-5-one] | 90 | 88 | 98 | 98 | 93 |  |
| CCCCCC1C(=O)CCC1CC(=O)OCC=C(C)C (stereo not drawn) [Prenyl dihydrojasmonate, 3-methylbut-2-enyl 2-(3-oxo-2-pentylcyclopentyl)acetate] |  |  |  |  |  | percent repellency at 2 hour (chemical at 1.0%): 82% |
| CCCCCCC=CC(C)=O [3-Decen-2-one] | 82 | 84 | 78 | 76 | 80 |  |
| CC1=CCC(C(C)CC2CCCC2=O)CC1 (stereo not drawn) [Nectaryl ™, 2-(2-(4-methyl-3-cyclohexen-1-yl)propyl) cyclopentanone] | 87.8 | 95.9 | 100 | 100 | 95.9 |  |
| C=C(C)C1CCC2=CC(=O)CC(C)C2(C)C1 (stereo not drawn) [Nootkatone, 4,4a-dimethyl-6-prop-1-en-2-yl-3,4,5,6,7,8-hexahydronaphthalen-2-one] | 100 | 100 | 100 | 100 | 100 | percent repellency at 2 hour (chemical at 0.1%): 60% |
| CCC(=O)/C(C)=C/C1C(C)CC=CC1(C)C (stereo not drawn) [Dimethylionone, (E)-2-methyl-1-(2,2,6-trimethyl-1-cyclohex-3-enyl)pent-1-en-3-one] | 90 | 96 | 96 | 92 | 93.5 |  |
| CC(=O)C=CC1C(C)=CCCC1(C)C (stereo not drawn) [Alpha Ionone, 4-(2,6,6-trimethyl-2-cyclohexenyl)-3-buten-2-one] |  |  |  |  |  | pest or weed control at 0.5 % [11]: 100%; pest or weed control at 0.5 % [12]: 100%; pest or weed control at 0.5 % [13]: 100%; pest or weed control at 0.5 % [14]: 84%; pest or weed control at 0.5 % [15]: 96% |
| CCCCCC1C(=O)CCC1CC(=O)OCC (stereo not drawn) [Ethyl dihydrojasmonate, ethyl 2-(3-oxo-2-pentylcyclopentyl)acetate] |  |  |  |  |  | percent repellency at 2 hour (chemical at 0.2%): 90% |
| CCC(C)CCCC(C)CCC1CCCC1=O (stereo not drawn) [Tetrahydro methyl apritone, 2-(3,7-dimethynonyl)cyclopentanone] |  |  |  |  |  | percent repellency at 2 hour (chemical at 0.2%): 88% |
| CCC(C)=CCCC(C)=CCC1CCCC1=O (stereo not drawn) [Methyl Apritone, 2-(3,7-dimethyl-2,6-nonadienyl)cyclopentanone] |  |  |  |  |  | pest or weed control at 0.2 % [6]: 100%; pest or weed control at 0.2 % [7]: 100%; pest or weed control at 0.2 % [8]: 100%; pest or weed control at 0.2 % [9]: 100%; percent repellency at 2 hour (chemical at 0.2%): 90%; pest or weed control at 0.2 % [10]: 100% |
| CCCCCC1CC(=O)C=C(C)C1C(=O)OCC (stereo not drawn) [ethyl 2-methyl-4-oxo-6-pentylcyclohec-2-enecarboxylate] |  |  |  |  |  | percent repellency at 2 hour (chemical at 0.2%): 62% |
| O=C1CCCC1C1CCCC1 (stereo not drawn) [2-Cyclopentylcyclopentanone, 2-cyclopentylcyclopentanone] | 90 | 90 | 76 | 70 | 81 |  |
| CCCCCCCCCCCC(C)=O [Methyl undecyl ketone, 2-tridecanone] | 100 | 100 | 100 | 100 | 100 |  |
| CCCCCC1C(=O)CCC1CC(=O)OCCC (stereo not drawn) [Propyl dihydrojasmonate, propyl 2-(3-oxo-2-pentylcyclopentyl)acetate] |  |  |  |  |  | percent repellency at 2 hour (chemical at 0.2%): 78% |
| CCCCCC=CCC1CCCC1=O (stereo not drawn) [2-Octenylcyclopentanone, 2-(2-octen-1-yl)cyclopentanone] | 100 | 100 | 100 | 100 | 100 |  |
| CC1=CCCC(C)(C)C1/C=C/C(=O)CC(C)C (stereo not drawn) [Isobutylionone, (E)-5-Methyl-1-(2,6,6-trimethyl-1-cyclohex-2-enyl) hex-1-en-3-one] | 100 | 98 | 94 | 94 | 96.5 |  |
| CC(=O)C(C)=CC1C(C)=CCCC1(C)C (stereo not drawn) [Alpha Isomethylionone, 3-methyl-4-(2,6,6-trimethyl-2-cyclohexen-1-yl)-3-buten-2-one] | 100 | 100 | 100 | 84 | 96 |  |
| CCCCOC(=O)CCC(C)=O [Butyl levulinate, reference compound] |  |  |  |  |  | pest or weed control at 0.2 % [6]: 64%; pest or weed control at 0.2 % [7]: 68%; pest or weed control at 0.2 % [8]: 62%; pest or weed control at 0.2 % [9]: 60%; pest or weed control at 0.2 % [10]: 64% |
| CC(C)=CCCC(C)=CCC1CCCC1=O (stereo not drawn) [2-Geranylcyclopentanone (Apritone), 2-(3,7-dimethylocta-2,6-dienyl)cyclopentan-1-one] | 100 | 100 | 100 | 100 | 100 |  |
| CCCCCC1C(=O)CCC1CC(=O)OC (stereo not drawn) [Methyl dihydrojasmonate, methyl 2-(3-oxo-2-pentylcyclopentyl)acetate] |  |  |  |  |  | pest or weed control at 0.2 % [6]: 86%; pest or weed control at 0.2 % [7]: 96%; pest or weed control at 0.2 % [8]: 94%; pest or weed control at 0.2 % [9]: 92%; percent repellency at 2 hour (chemical at 0.2%): 98%; pest or weed control at 0.2 % [10]: 92% |
| CCCCCCCCCCC(C)=O [Methyl decyl ketone, 2-dodecanone] | 100 | 100 | 100 | 100 | 100 |  |
| CC(C)CCCC(C)CCC1CCCC1=O (stereo not drawn) [Tetrahydroapritone] |  |  |  |  |  | percent repellency at 2 hour (chemical at 0.2%): 82% |
| O=C1CCC/C=C\CCCCCCCCCC1 [Cyclohexadec-5-ene-1-one, (5Z) cyclohexadec-5-ene-1-one] |  |  |  |  |  | pest or weed control at 0.1 % (chemical at 0.1% in acetone on filter paper, 0.5 hr post-treatment, read-out: percent repellency at 0.5 hr): 94%; pest or weed control at 0.1 % (chemical at 0.1% in acetone on filter paper, 1 hr post-treatment, read-out: percent repellency at 1 hr): 94%; pest or weed control at 0.1 % (chemical at 0.1% in acetone on filter paper, 6 hr post-treatment, read-out: percent repellency at 6 hr): 100%; pest or weed control at 0.1 % (chemical at 0.1% in acetone on filter paper, 24 hr post-treatment, read-out: percent repellency at 24 hr): 100%; pest or weed control at 0.1 % (chemical at 0.1%, average of 0.5, 1, 6 and 24 hr, read-out: percent repellency, Average): 97% |
| CC(=O)CCC=C(C)CCC=C(C)C [Geranylacetone, 6,10-dimethyl-5,9-undecadien-2-one] | 100 | 100 | 100 | 100 | 100 |  |
| CCCCCCCCCC(C)=O [Methyl nonyl ketone, methyl nonyl ketone] |  |  |  |  |  | pest or weed control at 0.5 % [11]: 85.7%; pest or weed control at 0.5 % [12]: 84%; pest or weed control at 0.5 % [13]: 80%; pest or weed control at 0.5 % [14]: 74%; pest or weed control at 0.5 % [15]: 80.9% |
